From ChEMBL document CHEMBL5150045, “Structure-Guided Design of Halofuginone Derivatives as ATP-Aided Inhibitors Against Bacterial Prolyl-tRNA Synthetase” (J Med Chem, 2022)
Values after ≈ are worked out from the molar mass of the structure shown. Values joined by “and” are separate entries in the source; they are usually repeats but may differ in a detail not shown here. Equal entries are not always repeated. Active and inactive are the calls of the source. No cut-off for these calls is given here.

Columns and labels:
Escherichia coli [1] = test: Antibacterial activity against Escherichia coli ATCC25922 assessed as prevention of visible growth by broth microdilution method; format: functional
Shigella flexneri = test: Antibacterial activity against Shigella flexneri CMCC51572 assessed as prevention of visible growth by broth microdilution method; format: functional
Salmonella typhi = test: Antibacterial activity against Salmonella typhi CMCC50094 assessed as prevention of visible growth by broth microdilution method; format: functional, Salmonella enterica subsp. enterica serovar Typhi; conditions: Salmonella enterica
Staphylococcus aureus [2] = test: Antibacterial activity against methicillin-resistant Staphylococcus aureus 252 assessed as prevention of visible growth by broth microdilution method; format: functional
Staphylococcus aureus [3] = test: Antibacterial activity against methicillin-resistant Staphylococcus aureus R3708 assessed as prevention of visible growth by broth microdilution method; format: functional
Staphylococcus aureus [4] = test: Antibacterial activity against Staphylococcus aureus ATCC29213 assessed as prevention of visible growth by broth microdilution method; format: functional
Staphylococcus aureus [5] = test: Antibacterial activity against Staphylococcus aureus ATCC25923 assessed as prevention of visible growth by broth microdilution method; format: functional
Staphylococcus aureus [6] = test: Bacteriostatic effect against methicillin-resistant Staphylococcus aureus 252 assessed as decrease in CFU/ml at MIC measured for 24 hrs by CLSI based time-kill kinetic assays; format: functional
[7] = biological target: T1, Proline--tRNA ligase (Escherichia coli) (UniProt P16659); test: Inhibition of Escherichia coli ProRS expressed in Escherichia coli assessed as generation of inorganic monophosphate by pre-transfer editing-based experiment; conditions: dose 0-100 µM, DDE = dose-dependent effect
T1 sequence (whole entry): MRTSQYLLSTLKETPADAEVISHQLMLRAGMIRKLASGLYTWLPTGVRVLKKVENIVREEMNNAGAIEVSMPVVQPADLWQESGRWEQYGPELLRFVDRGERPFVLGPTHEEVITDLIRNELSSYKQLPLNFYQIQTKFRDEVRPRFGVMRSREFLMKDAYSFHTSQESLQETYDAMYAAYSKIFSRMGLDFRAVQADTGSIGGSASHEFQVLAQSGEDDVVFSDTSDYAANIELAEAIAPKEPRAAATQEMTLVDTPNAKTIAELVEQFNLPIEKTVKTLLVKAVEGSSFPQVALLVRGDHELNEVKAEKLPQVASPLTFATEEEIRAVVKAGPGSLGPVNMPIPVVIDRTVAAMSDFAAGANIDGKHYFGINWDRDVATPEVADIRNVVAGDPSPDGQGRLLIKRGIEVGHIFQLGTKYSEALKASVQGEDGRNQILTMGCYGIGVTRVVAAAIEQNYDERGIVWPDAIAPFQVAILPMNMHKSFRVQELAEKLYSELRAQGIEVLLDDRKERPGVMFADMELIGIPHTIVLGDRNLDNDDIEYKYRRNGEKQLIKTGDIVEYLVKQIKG

[8] = biological target: T2, Proline--tRNA ligase (Salmonella typhi) (UniProt Q8XEY9); test: Inhibition of Salmonella typhi ProRS expressed in Escherichia coli assessed as generation of inorganic monophosphate by pre-transfer editing-based experiment; conditions: Salmonella enterica subsp. enterica serovar Typhi; dose 0-100 µM; DDE = dose-dependent effect
T2 sequence (whole entry): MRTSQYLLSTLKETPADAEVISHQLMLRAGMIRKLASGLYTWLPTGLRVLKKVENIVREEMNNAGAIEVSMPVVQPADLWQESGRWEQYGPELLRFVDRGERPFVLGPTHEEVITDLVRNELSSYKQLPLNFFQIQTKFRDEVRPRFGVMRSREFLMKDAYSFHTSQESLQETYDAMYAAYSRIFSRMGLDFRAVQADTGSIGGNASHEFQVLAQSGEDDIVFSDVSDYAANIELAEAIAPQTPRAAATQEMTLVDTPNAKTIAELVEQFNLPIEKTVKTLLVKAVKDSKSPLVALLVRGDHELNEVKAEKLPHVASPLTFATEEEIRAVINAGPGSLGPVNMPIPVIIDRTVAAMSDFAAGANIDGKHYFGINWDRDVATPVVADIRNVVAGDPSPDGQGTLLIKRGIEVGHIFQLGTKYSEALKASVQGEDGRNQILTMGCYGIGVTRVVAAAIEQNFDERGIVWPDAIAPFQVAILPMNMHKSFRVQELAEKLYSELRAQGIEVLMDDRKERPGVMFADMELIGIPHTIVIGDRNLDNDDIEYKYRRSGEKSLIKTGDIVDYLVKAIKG

[9] = (§1) Inhibition of methicillin-resistant Staphylococcus aureus ProRS expressed in Escherichia coli assessed as generation of inorganic monophosphate by pre-transfer editing-based experiment
Staphylococcus aureus [10] = test: as §1; conditions: dose 0-100 µM, DDE = dose-dependent effect
Homo sapiens [11] = species: Homo sapiens; test: Inhibition of human ProRS expressed in Escherichia coli assessed as generation of inorganic monophosphate by pre-transfer editing-based experiment; conditions: dose 0-100 µM, DDE = dose-dependent effect
Saccharomyces cerevisiae = test: Inhibition of Saccharomyces cerevisiae ProRS expressed in Escherichia coli assessed as generation of inorganic monophosphate at 0 to 100 uM by pre-transfer editing-based experiment; conditions: dose 0-100 µM, DDE = dose-dependent effect
[12] = biological target: T1, Proline--tRNA ligase (Escherichia coli); test: Inhibition of Escherichia coil ProRS expressed in Escherichia coli assessed as change in melting temperature in presence of AMPPNP at 0.5 mM by fluorescence-based thermal shift assay
[13] = biological target: T2, Proline--tRNA ligase (Salmonella typhi); test: Inhibition of Salmonella typhi ProRS expressed in Escherichia coli assessed as change in melting temperature in presence of AMPPNP at 0.5 mM by fluorescence-based thermal shift assay; conditions: Salmonella enterica subsp. enterica serovar Typhi
Staphylococcus aureus [14] = test: Inhibition of methicillin-resistant Staphylococcus aureus ProRS expressed in Escherichia coli assessed as change in melting temperature in presence of AMPPNP at 0.5 mM by fluorescence-based thermal shift assay
Homo sapiens [15] = species: Homo sapiens; test: Inhibition of human ProRS expressed in Escherichia coli assessed as change in melting temperature in presence of AMPPNP at 0.5 mM by fluorescence-based thermal shift assay
[16] = Binding affinity to methicillin-resistant Staphylococcus aureus ProRS expressed in Escherichia coli assessed as dissociation constant by microscale thermophoresis assay
[17] = Binding affinity to methicillin-resistant Staphylococcus aureus ProRS expressed in Escherichia coli assessed as dissociation constant in presence of 0.05 nM ATP by microscale thermophoresis assay
[18] = Binding affinity to methicillin-resistant Staphylococcus aureus ProRS expressed in Escherichia coli assessed as dissociation constant in presence of 0.1 nM ATP by microscale thermophoresis assay
[19] = Binding affinity to methicillin-resistant Staphylococcus aureus ProRS expressed in Escherichia coli assessed as dissociation constant in presence of 0.2 nM ATP by microscale thermophoresis assay
[20] = Binding affinity to methicillin-resistant Staphylococcus aureus ProRS expressed in Escherichia coli assessed as dissociation constant in presence of 0.5 nM ATP by microscale thermophoresis assay
[21] = Binding affinity to methicillin-resistant Staphylococcus aureus ProRS expressed in Escherichia coli assessed as dissociation constant in presence of 1 nM ATP by microscale thermophoresis assay
[22] = Binding affinity to methicillin-resistant Staphylococcus aureus ProRS expressed in Escherichia coli assessed as dissociation constant in presence of 2 nM ATP by microscale thermophoresis assay
[23] = Cytotoxicity against human HepG2 cells; format: toxicity, cell-based
[24] = Selectivity index, ratio of CC50 for human HepG2 cells to MIC for methicillin-resistant Staphylococcus aureus 252; format: toxicity; conditions: read-out: Selectivity Index
Staphylococcus aureus [25] = test: Bactericidal activity against methicillin-resistant Staphylococcus aureus 252 assessed as bacterial killing measured after 24 hrs incubation by CLSI method; format: functional; conditions: read-out: MBC99.9
Staphylococcus aureus [26] = test: Ratio of MBC99.9 for methicillin-resistant Staphylococcus aureus 252 to MIC for methicillin-resistant Staphylococcus aureus 252; format: functional
Escherichia coli [27] = test: Ratio of MBC99.9 for Escherichia coli ATCC25922 to MIC for Escherichia coli ATCC25922; format: functional
Staphylococcus aureus [28] = test: Bacteriostatic effect against methicillin-resistant Staphylococcus aureus 252 assessed as decrease in CFU/ml at 1 to 4 times of MIC measured for 0 to 12 hrs by CLSI based time-kill kinetic assays; format: functional, organism-based; conditions: time 0-12 hrs
Escherichia coli [29] = test: Bacteriostatic effect against Escherichia coli ATCC25922 assessed as decrease in CFU/ml at 1 to 4 times of MIC measured for 0 to 12 hrs by CLSI based time-kill kinetic assays; format: functional, organism-based; conditions: time 0-12 hrs
Staphylococcus aureus [30] = test: Bacteriostatic effect against methicillin-resistant Staphylococcus aureus 252 assessed as decrease in CFU/ml at 4 times of MIC measured for 24 hrs by CLSI based time-kill kinetic assays; format: functional
Escherichia coli [31] = test: Bacteriostatic effect against Escherichia coli ATCC25922 assessed as decrease in CFU/ml at 4 times of MIC measured for 24 hrs by CLSI based time-kill kinetic assays; format: functional
Staphylococcus aureus [32] = test: Resistance development in methicillin-resistant Staphylococcus aureus 252 assessed as fold increase in resistance after 15 days serial passage upto 256 ug/ml; format: functional; conditions: dose <= 256 µg/ml; time 15 day
Escherichia coli [33] = test: Resistance development in Escherichia coli ATCC25922 assessed as fold increase in resistance after 15 days serial passage upto 256 ug/ml; format: functional; conditions: dose <= 256 µg/ml; time 15 day
Staphylococcus aureus [34] = test: Antibacterial activity against drug-resistance induced methicillin-resistant Staphylococcus aureus 252 assessed as assessed as reversal of drug resistance measured after 10 days in compound free media by broth microdilution method; format: functional; conditions: Staphylococcus aureus, 252, 240 h; time 10 day
Escherichia coli [35] = test: Antibacterial activity against drug-resistance induced Escherichia coli ATCC25922 assessed as assessed as reversal of drug resistance measured after 10 days in compound free media by broth microdilution method; format: functional; conditions: ATCC25922, 240 h, time 10 day

SMILES | MIC (Escherichia coli [1]) [µg/mL] | MIC (Shigella flexneri) [µg/mL] | MIC (Salmonella typhi) [µg/mL] | MIC (Staphylococcus aureus [2]) [µg/mL] | MIC (Staphylococcus aureus [3]) [µg/mL] | MIC (Staphylococcus aureus [4]) [µg/mL] | MIC (Staphylococcus aureus [5]) [µg/mL] | IC50 [9] [µM] | ΔTm (Staphylococcus aureus [14]) | ΔTm (Homo sapiens [15]) | Kd [16] [µM] | Kd [17] [µM] | Kd [18] [µM] | Kd [19] [µM] | Kd [20] [µM] | Kd [21] [µM] | Kd [22] [µM] | CC50 [23] [µM] | further results
C/C(=C\C(=O)OCCCCCCCCC(=O)O)C[C@@H]1OC[C@H](C[C@@H]2O[C@H]2[C@@H](C)[C@H](C)O)[C@@H](O)[C@H]1O [MUPIROCIN] | 32 (≈ 63.9 µM) | 8 (≈ 16 µM) | 32 (≈ 63.9 µM) | 0.13 (≈ 0.26 µM) | 0.13 (≈ 0.26 µM) | 0.13 (≈ 0.26 µM) | 0.13 (≈ 0.26 µM) | – | – | – | – | – | – | – | – | – | – | – | Activity (Staphylococcus aureus [6]): 1.2 log10CFU/ml
O=C(CC1NCCCC1O)Cn1cnc2cc(Br)c(Cl)cc2c1=O (stereo not drawn) [HALOFUGINONE] | 64 (≈ 154 µM) | 64 (≈ 154 µM) | > 64 | 64 (≈ 154 µM) | 64 (≈ 154 µM) | > 64 | > 64 | 0.66 | 6.9 °C and 6 °C | 13.6 °C and 17.4 °C | 1020 | 781 | 628 | 11.6 | 5.51 | 0.423 | 0.216 | 4.32 | inhibition [7]: Dde; inhibition [8]: Dde; inhibition (Staphylococcus aureus [10]): Dde; inhibition (Homo sapiens [11]): Dde; inhibition (Saccharomyces cerevisiae): Dde; ΔTm [12]: 17.4 °C; ΔTm [13]: 12.5 °C
O=C(C[C@@H]1CCCCN1)Cn1cnc2cc(Cl)c(F)cc2c1=O | 1 (≈ 2.96 µM) | 1 (≈ 2.96 µM) | 4 (≈ 11.8 µM) | 1 (≈ 2.96 µM) | 1 (≈ 2.96 µM) | 2 (≈ 5.92 µM) | 4 (≈ 11.8 µM) | 0.18 | 10.2 °C | 20.4 °C | 376 | 276 | 205 | 8.33 | 0.691 | 0.0675 | 0.0303 | 0.076 | selectivity ratio [24]: 3600; MBC (Staphylococcus aureus [25]): 8 µg/mL (≈ 23.7 µM); Ratio (Staphylococcus aureus [26]): 8; Ratio (Escherichia coli [27]): 16; Activity (Staphylococcus aureus [28]): Active; Activity (Escherichia coli [29]): Active; Activity (Staphylococcus aureus [30]): 2.1 log10CFU/ml; Activity (Escherichia coli [31]): 1.6 log10CFU/ml; fold change (FC) (Staphylococcus aureus [32]): 15; fold change (FC) (Escherichia coli [33]): 16; MIC (Staphylococcus aureus [34]): 4 µg/mL; MIC (Escherichia coli [35]): 8 µg/mL
